The source of these data is ChEMBL document CHEMBL4828722, “The synthesis and bioactivity of pyrrolo[2,3-d]pyrimidine derivatives as tyrosine kinase inhibitors for NSCLC cells with EGFR mutations” (Eur J Med Chem, 2021).

The test system of data set [1] is Epidermal growth factor receptor (Homo sapiens), P00533 [C797S]. Briefly: Inhibition of […] EGFR C797S mutant (unknown origin) at 2 nM pretreated with substrate for 10 mins followed by ATP addition measured after 60 mins by mobility shift assay relative to control.
Data set [2] concerns the target T1, Epidermal growth factor receptor (Homo sapiens, UniProt P00533). Briefly: Inhibition of wild type EGFR (unknown origin) pretreated with substrate for 10 mins followed by ATP addition measured after 60 mins by mobility shift assay.
Data set [3] is described as follows: Potency index, ratio of avitinib IC50 to test compound IC50 for cytotoxicity against human HBE cells assessed as reduction in cell viability measured after 48 hrs by CCK8 assay. Format: cell-based. The conditions noted are these: read-out: Ratio IC50.
The target of data set [4] is T1, Epidermal growth factor receptor. The data set is described as follows: Inhibition of […] EGFR phosphorylation at Tyr1068 residue in human NCI-H1975 cells at 0.1 to 5 uM incubated for 2 hrs by immunoblotting analysis. Format: cell-based. Particulars: dose 0.1-5 µM. A general note: A western blot detects proteins with antibodies after separation by electrophoresis.

In data set [5] the test system is HCC827. The data set is described as follows: Induction of apoptosis in human HCC827 cells harboring EGFR del E746-A750 mutant assessed as live cells at 0.5 uM measured after 18 hrs by Annexin V-FITC/PI staining based flow cytometry analysis (Rvb= 87.5%). Format: functional.
Data set [6] is described as follows: Potency index, ratio of avitinib IC50 to test compound IC50 for cytotoxicity against human BEAS-2B cells assessed as reduction in cell viability measured after 48 hrs by CCK8 assay. Particulars: read-out: Ratio IC50. Format: cell-based.
Data set [7] concerns Epidermal growth factor receptor (Homo sapiens), P00533 [T790M]. Briefly: Inhibition of […] EGFR T790M mutant (unknown origin) at 2 nM pretreated with substrate for 10 mins followed by ATP addition measured after 60 mins by mobility shift assay relative to control.
The target of data set [8] is T1, Epidermal growth factor receptor. Briefly: Inhibition of […] EGFR phosphorylation at Tyr992 residue in human HCC827 cells at 0.1 to 5 uM incubated for 2 hrs by immunoblotting analysis. Format: cell-based. The conditions noted are these: dose 0.1-5 µM.
Data set [9] has as its target Epidermal growth factor receptor (Homo sapiens, UniProt P00533, C797S). Briefly: Inhibition of […] EGFR C797S mutant (unknown origin) pretreated with substrate for 10 mins followed by ATP addition measured after 60 mins by mobility shift assay.
Data set [10] deals with Epidermal growth factor receptor (Homo sapiens), P00533 [L858R,T790M]. The data set is described as follows: Inhibition of […] EGFR L858R/T790M mutant (unknown origin) at 2 nM pretreated with substrate for 10 mins followed by ATP addition measured after 60 mins by mobility shift assay relative to control.
The target in data set [11] is T1, Epidermal growth factor receptor. The data set is described as follows: Inhibition of wild type EGFR (unknown origin) at 80 nM pretreated with substrate for 10 mins followed by ATP addition measured after 60 mins by mobility shift assay relative to control.
The target in data set [12] is Epidermal growth factor receptor (Homo sapiens, UniProt P00533, DELE746). The data set is described as follows: Inhibition of […] EGFR Del E746/A750 mutant (unknown origin) pretreated with substrate for 10 mins followed by ATP addition measured after 60 mins by mobility shift assay.
Data set [13] relates to Epidermal growth factor receptor (Homo sapiens), P00533 [UNDEFINED MUTATION]. Briefly: Inhibition of […] EGFR Del E746/A750 mutant (unknown origin) at 2 nM pretreated with substrate for 10 mins followed by ATP addition measured after 60 mins by mobility shift assay relative to control.
Data set [14] has as its system Epidermal growth factor receptor (Homo sapiens), P00533 [L858R]. Briefly: Inhibition of […] EGFR L858R mutant (unknown origin) at 2 nM pretreated with substrate for 10 mins followed by ATP addition measured after 60 mins by mobility shift assay relative to control.
Data set [15] deals with T1, Epidermal growth factor receptor. The data set is described as follows: Inhibition of […] EGFR phosphorylation at Tyr992 residue in human NCI-H1975 cells at 0.1 to 5 uM incubated for 2 hrs by immunoblotting analysis. Format: cell-based. Particulars: dose 0.1-5 µM.
Data set [16] deals with Epidermal growth factor receptor (Homo sapiens, UniProt P00533, L858R). Briefly: Inhibition of […] EGFR L858R mutant (unknown origin) pretreated with substrate for 10 mins followed by ATP addition measured after 60 mins by mobility shift assay.
Data set [17] has as its target Epidermal growth factor receptor (Homo sapiens, UniProt P00533, L858R/T790M). The data set is described as follows: Inhibition of […] EGFR L858R/T790M mutant (unknown origin) pretreated with substrate for 10 mins followed by ATP addition measured after 60 mins by mobility shift assay.
In data set [18] the test system is Epidermal growth factor receptor (Homo sapiens), P00533 [L858R,T790M,C797S]. The data set is described as follows: Inhibition of […] EGFR L858R/T790M/C797S mutant (unknown origin) at 2 nM pretreated with substrate for 10 mins followed by ATP addition measured after 60 mins by mobility shift assay relative to control.
Data set [19] relates to NCI-H1975. The data set is described as follows: Cytotoxicity against human NCI-H1975 cells harboring EGFR L858R/T790M mutant assessed as reduction in cell viability measured after 48 hrs by CCK8 assay. Particulars: NCI-H1975, 48 h. Format: functional, cell-based. For orientation: Tetrazolium assays rely on reduction of a dye to a coloured formazan, in cell work by metabolically active cells.

Data set [20] addresses T1, Epidermal growth factor receptor. Briefly: Inhibition of wild type EGFR phosphorylation at Tyr992 residue in human HBE cells up to 5 uM incubated for 2 hrs by immunoblotting analysis. Format: cell-based. Particulars: dose microM <=5, time 2.0 hrs.
For data set [21], the system named is NCI-H1975. The data set is described as follows: Induction of cell cycle arrest in human NCI-H1975 cells harboring EGFR L858R/T790M mutant assessed as accumulation of cells in G0/G1 phase at 1 uM measured after 18 hrs by PI/RNaseA staining based flow cytometry analysis (Rvb= 42.69%). Format: functional.
For data set [22], the target named is Epidermal growth factor receptor (Homo sapiens, UniProt P00533, C797S/L858R/T790M). The data set is described as follows: Inhibition of […] EGFR L858R/T790M/C797S mutant (unknown origin) pretreated with substrate for 10 mins followed by ATP addition measured after 60 mins by mobility shift assay.
Data set [23] has as its system HCC827. Briefly: Potency index, ratio of avitinib IC50 to test compound IC50 for cytotoxicity against human HCC827 cells harboring EGFR del E746-A750 mutant assessed as reduction in cell viability measured after 48 hrs by CCK8 assay. Format: functional.
Data set [24] deals with HCC827. Briefly: Induction of apoptosis in human HCC827 cells harboring EGFR del E746-A750 mutant assessed as dead cells at 0.5 uM measured after 18 hrs by Annexin V-FITC/PI staining based flow cytometry analysis (Rvb= […]). Format: functional.
Data set [25] concerns the target T1, Epidermal growth factor receptor. Briefly: Inhibition of wild type EGFR phosphorylation at Tyr1068 residue in human HBE cells up to 5 uM incubated for 2 hrs by immunoblotting analysis. The conditions noted are these: dose microM <=5, time 2.0 hrs. Format: cell-based.
Data set [26] concerns the target Epidermal growth factor receptor (Homo sapiens, UniProt P00533, T790M). The data set is described as follows: Inhibition of […] EGFR T790M mutant (unknown origin) pretreated with substrate for 10 mins followed by ATP addition measured after 60 mins by mobility shift assay.
Data set [27] relates to NCI-H1975. Briefly: Induction of apoptosis in human NCI-H1975 cells harboring EGFR L858R/T790M mutant assessed as early apoptotic cells at 5 uM measured after 18 hrs by Annexin V-FITC/PI staining based flow cytometry analysis (Rvb= […]). Format: functional. In general terms: A flow cytometer gives signals particle by particle.
Data set [28] deals with T1, Epidermal growth factor receptor. The data set is described as follows: Inhibition of […] EGFR phosphorylation at Tyr1068 residue in human HCC827 cells at 0.1 to 5 uM incubated for 2 hrs by immunoblotting analysis. Format: cell-based. Particulars: dose 0.1-5 µM.
Data set [29] is described as follows: Cytotoxicity against human HBE cells assessed as reduction in cell viability measured after 48 hrs by CCK8 assay. Format: cell-based.

Molecules are shown by their SMILES. Calls of active or inactive are those of the source. The rule behind the calls is not given here. Some results are limits rather than exact numbers.

T1 sequence (P00533 whole entry): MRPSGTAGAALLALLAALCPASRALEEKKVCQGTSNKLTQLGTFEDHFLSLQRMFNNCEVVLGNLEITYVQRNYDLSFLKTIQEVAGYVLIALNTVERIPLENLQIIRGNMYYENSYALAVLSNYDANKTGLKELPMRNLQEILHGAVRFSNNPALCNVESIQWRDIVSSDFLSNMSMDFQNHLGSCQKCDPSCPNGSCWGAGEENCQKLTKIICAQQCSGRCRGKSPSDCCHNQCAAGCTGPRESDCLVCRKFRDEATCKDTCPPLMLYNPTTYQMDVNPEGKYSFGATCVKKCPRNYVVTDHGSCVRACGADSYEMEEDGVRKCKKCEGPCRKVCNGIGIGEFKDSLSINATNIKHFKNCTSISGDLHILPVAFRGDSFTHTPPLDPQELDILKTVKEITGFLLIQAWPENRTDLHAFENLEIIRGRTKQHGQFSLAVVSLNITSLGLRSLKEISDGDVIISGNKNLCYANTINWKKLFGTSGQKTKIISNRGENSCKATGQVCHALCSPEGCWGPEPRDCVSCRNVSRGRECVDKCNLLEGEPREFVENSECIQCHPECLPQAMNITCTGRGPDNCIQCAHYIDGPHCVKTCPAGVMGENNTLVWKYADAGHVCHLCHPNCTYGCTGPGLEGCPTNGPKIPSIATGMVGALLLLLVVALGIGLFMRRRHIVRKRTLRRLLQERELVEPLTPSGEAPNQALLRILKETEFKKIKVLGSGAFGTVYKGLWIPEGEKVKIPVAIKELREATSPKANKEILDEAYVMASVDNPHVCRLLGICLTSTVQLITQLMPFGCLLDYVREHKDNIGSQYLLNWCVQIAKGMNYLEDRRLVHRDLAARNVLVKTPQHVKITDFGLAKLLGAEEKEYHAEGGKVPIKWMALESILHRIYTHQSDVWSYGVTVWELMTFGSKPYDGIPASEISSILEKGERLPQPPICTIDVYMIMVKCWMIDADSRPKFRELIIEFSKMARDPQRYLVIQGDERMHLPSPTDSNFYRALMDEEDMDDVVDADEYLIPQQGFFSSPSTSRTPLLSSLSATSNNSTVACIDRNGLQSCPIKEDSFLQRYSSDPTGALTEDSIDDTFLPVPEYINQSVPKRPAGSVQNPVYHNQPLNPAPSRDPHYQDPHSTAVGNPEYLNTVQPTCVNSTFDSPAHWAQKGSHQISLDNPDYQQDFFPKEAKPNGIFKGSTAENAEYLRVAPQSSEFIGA
Epidermal growth factor receptor (Homo sapiens, UniProt P00533, C797S), sequence (P00533 25-1210 C797S limits assumed): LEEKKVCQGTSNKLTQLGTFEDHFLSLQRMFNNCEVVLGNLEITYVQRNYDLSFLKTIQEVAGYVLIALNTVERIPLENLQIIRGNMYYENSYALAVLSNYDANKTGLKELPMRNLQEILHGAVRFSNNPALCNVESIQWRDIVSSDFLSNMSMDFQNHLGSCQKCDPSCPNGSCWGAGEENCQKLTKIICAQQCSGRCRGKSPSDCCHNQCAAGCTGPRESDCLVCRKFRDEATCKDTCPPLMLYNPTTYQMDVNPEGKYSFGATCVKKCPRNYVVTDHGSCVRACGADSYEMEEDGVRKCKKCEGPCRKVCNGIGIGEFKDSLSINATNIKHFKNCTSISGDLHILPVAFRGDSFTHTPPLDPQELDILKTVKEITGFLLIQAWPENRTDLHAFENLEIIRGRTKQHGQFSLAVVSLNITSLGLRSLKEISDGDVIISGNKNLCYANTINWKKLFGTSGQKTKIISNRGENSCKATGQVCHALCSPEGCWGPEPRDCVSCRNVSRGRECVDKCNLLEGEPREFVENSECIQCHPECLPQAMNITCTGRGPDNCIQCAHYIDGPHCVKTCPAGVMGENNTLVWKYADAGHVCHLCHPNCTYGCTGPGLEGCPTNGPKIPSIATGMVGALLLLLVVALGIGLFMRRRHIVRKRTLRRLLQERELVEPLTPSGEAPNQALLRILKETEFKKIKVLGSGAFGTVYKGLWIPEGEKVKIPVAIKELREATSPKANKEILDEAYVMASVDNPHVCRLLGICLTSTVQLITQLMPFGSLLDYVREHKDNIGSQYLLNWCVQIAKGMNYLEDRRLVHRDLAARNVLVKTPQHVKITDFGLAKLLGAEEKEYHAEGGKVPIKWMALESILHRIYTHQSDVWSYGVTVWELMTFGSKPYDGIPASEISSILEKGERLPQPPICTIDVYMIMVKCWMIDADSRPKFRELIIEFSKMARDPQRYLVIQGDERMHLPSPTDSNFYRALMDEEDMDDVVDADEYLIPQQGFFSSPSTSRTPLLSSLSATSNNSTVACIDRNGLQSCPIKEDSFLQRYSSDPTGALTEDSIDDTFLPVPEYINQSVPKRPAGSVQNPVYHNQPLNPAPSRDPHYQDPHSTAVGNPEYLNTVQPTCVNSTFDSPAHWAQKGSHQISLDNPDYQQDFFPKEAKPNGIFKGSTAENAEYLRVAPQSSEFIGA
Epidermal growth factor receptor (Homo sapiens), P00533 [C797S], sequence (P00533 whole entry C797S): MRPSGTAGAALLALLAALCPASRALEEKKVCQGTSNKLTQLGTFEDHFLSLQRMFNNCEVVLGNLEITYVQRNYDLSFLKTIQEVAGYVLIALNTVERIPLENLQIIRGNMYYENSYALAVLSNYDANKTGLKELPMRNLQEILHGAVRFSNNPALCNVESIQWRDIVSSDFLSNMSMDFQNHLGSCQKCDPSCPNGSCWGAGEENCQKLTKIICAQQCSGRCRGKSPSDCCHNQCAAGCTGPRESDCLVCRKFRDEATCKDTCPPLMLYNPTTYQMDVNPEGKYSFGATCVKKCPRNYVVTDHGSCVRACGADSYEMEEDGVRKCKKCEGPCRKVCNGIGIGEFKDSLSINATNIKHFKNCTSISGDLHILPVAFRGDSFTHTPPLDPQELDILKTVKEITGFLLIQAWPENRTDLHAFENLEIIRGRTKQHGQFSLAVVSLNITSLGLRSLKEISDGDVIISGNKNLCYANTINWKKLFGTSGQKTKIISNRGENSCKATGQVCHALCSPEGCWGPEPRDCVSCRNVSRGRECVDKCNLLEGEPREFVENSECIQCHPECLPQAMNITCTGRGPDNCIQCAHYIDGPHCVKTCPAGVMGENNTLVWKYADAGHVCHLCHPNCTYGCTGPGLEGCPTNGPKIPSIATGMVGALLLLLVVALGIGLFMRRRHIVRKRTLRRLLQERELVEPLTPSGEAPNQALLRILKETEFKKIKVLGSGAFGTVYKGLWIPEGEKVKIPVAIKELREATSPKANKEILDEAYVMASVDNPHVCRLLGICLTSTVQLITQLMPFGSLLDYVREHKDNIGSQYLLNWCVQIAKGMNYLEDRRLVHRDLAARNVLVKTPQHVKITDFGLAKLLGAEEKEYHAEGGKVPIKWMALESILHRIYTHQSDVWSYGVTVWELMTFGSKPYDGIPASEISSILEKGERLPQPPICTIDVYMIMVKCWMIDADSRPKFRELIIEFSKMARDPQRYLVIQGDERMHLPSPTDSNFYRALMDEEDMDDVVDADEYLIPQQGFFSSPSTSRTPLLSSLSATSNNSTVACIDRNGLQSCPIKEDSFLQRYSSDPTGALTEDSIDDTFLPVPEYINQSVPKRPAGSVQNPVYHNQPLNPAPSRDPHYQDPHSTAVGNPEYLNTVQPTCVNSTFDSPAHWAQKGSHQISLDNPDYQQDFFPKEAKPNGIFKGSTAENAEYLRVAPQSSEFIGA
Epidermal growth factor receptor (Homo sapiens), P00533 [UNDEFINED MUTATION], sequence (P00533 whole entry, looked up, stated change not applied): as the sequence (P00533 whole entry) above

With `C=CC(=O)Nc1cccc(Oc2nc(Nc3ccc(N4CCN(C)CC4)c(N)c3)nc3[nH]ccc23)c1`, the inhibition came to 16% in [1]; 96% in [7]; 85% in [10]; 63% in data set [11]; 63% in [13]; 40% in [14]. Moreover, the inhibition in data set [18] was found to be 8%. Also, the IC50 in data set [2] came out at 22 nM; in [9], 0.76 nM; in data set [12] it was 2 nM; in data set [16] it was 0.21 nM; in data set [17], 2.2 nM; in the data set on NCI-H1975 [19], 3840 nM. The IC50 was 119 nM in [22], over 10000 nM in data set [26] and 22700 nM in data set [29]. Moreover, the selectivity ratio at 48 h in [3] and in data set [6] was 2 each time. The inhibition result in data set [4], in data set [8], in [15] and in data set [28] was “Active” each time. In addition, the Activity came to 69.1% with HCC827 [5], 69.17% with NCI-H1975 [21], 2.1% in the data set on HCC827 [24] and 15.9% in the data set with NCI-H1975 [27]. The inhibition result in data set [20] and in data set [25] was “inactive” throughout. Also, the “Ratio IC50” value in the data set with HCC827 [23] was 2.
Regarding `C=CC(=O)Nc1cccc(Oc2nc(Nc3ccc(N4CCN(C)CC4)c([N+](=O)[O-])c3)nc3[nH]ccc23)c1`, the inhibition is 3.7% in data set [1]; 91% in [7]; 49% in data set [10]; 37% in data set [11]; 23% in data set [13]; 19% in data set [14]. In addition, the inhibition in data set [18] was 5.8%. The IC50 in data set [2] was 111 nM; in [9], 1.2 nM; in data set [12], 10 nM; in data set [16], 0.39 nM; in data set [17] it was 7.3 nM; in the data set with NCI-H1975 [19] it was 3100 nM. The IC50 in [22] is 829 nM; in [26], over 10000 nM; in data set [29], 7540 nM. Also, the inhibition result in data set [4], in data set [8], in data set [15] and in data set [28] was “Active” in each case. The Activity with HCC827 [5] came to 68.2%; in the data set with NCI-H1975 [21], 72.08%; in the data set on HCC827 [24], 1.4%; in the data set on NCI-H1975 [27] it was 13.2%. The inhibition entry in data set [20] and in data set [25] was “inactive” each time.
With `C=CC(=O)Nc1cccc(Oc2nc(Nc3ccc(N4CCN(C)CC4)c(F)c3)nc3[nH]ccc23)c1` [ABIVERTINIB], the Activity with HCC827 [5] came to 67.9%; in the data set with NCI-H1975 [27], 11.3%.

For orientation: inhibition means the percentage by which the read-out fell short of the control. The IC50 is the concentration needed to halve the response being measured.
